Laboratory results: patent US8257915B2, “Farnesyltransferase inhibitors for treatment of laminopathies, cellular aging and atherosclerosis” (Progeria Research Foundation, Inc., priority 2002, dated 2012)
Where two headings read alike, the source gives them in different places.

Columns and labels:
[1] = system: normal fibroblasts (GM08398) transiently expressing GFP-lamin A or GFP-progerin; assay: Nuclear morphology and GFP localization in normal fibroblasts transiently expressing GFP-lamin A or GFP-progerin, exposed to FTI; format: cell-based, human; details: 100 nM FTI, 72 hours
Protocol: (§1) FIG. 7 illustrates the effect of a 72 hour exposure to 100 nM FTI (PD169451) on GFP-lamin A (A) and GFP-progerin (B) localization, protein processing (C) and nuclear morphology (D and E). Confocal microscopy was used to examine the effects of FTIs on transiently-expressed GFP-lamin A (A) and GFP-progerin (B) in normal fibroblasts. Three focal planes are shown—top, middle and bottom (from left to right). Exposure to 100 nM FTI for 72 hours caused about half of the endogenous lamin A to be unprocessed pre-lamin A in normal and HGPS fibroblasts (C). Exposure to the FTI increased the percent of mock transfected cells and GFP-lamin A expressing cells with abnormal nuclear morphology (D). However, the percentage of cells expressing GFP-progerin with an abnormal nuclear morphology decreased by 33% when exposed to the FTI for 72 hours.
GFP localization: Normal and HGPS fibroblasts were plated on coverslips in six well plates or in chambered microscope slides (BD Biosciences) 24 hours prior to transfection. Fibroblasts were transiently transfected with the GFP-lamin A or GFP-progerin expression constructs using FUGENE®6 transfection reagent (Roche). Seventy-two hours later the cells were washed two times with PBS (pH 7.2) and fixed for 20 minutes at 4° C. with 4% paraformaldehyde in PBS containing 62.5 µg/ml LPC palmitoyl and 1 U/ml rhodamine phalloidin (Molecular Probes) to stain the cytoskeleton. Following three washes with PBS, Prolong Gold mounting medium with DAPI (Molecular Probes) was applied to the coverslips which were then inverted and placed on microscope slides.
Normal and HGPS fibroblasts were plated on coverslips in 6 well plates 24 hours prior to transfection. Normal fibroblasts were transiently transfected with the GFP-lamin A or GFP-progerin expression constructs using FUGENE®6 transfection reagent (Roche). The following day, the medium was replaced with growth medium containing 0 nM, 100 nM, 500 nM or […] of the FTI, PD169451. […]

[2] = system: HGPS fibroblasts (AG11498, P01, HGADFN136, HGADFN004); assay: Nuclear morphology of HGPS fibroblasts maintained in FTI; format: cell-based, human
Protocol: (§2) FIG. 10 illustrates the effect of long-term exposure to low doses of FTI (PD169451) on the nuclear morphology of normal (GM08398 and HGMDFN090) and HGPS (AG11498, P01, HGADFN136 and HGADFN004) fibroblasts. Fibroblasts were maintained in medium with 0 nM, 10 nM or 100 nM FTI. Cultures were plated in chambered microscope slides 24 hours prior to fixing with 4% paraformaldehyde for nuclear morphology studies. **—Too few cells to count. […] All cell lines were passage 6 at the beginning of the analysis except for HGADFN004, which was at passage 12.
(§3) Normal and HGPS fibroblasts were maintained in T75 tissue culture flasks with 0 nM, 10 nM, and 100 nM concentrations of the FTI, PD169451, added to the growth medium. The medium was changed every 2 days and the cells were split when they were approximately 80% confluent. Three days prior to each time point, a flask was trypsinized and cells were placed in chambered microscope slides (BD Biosciences) and maintained in the appropriate FTI concentration. Seventy-two hours later the cells were washed two times with PBS (pH 7.2) and fixed for 20 minutes at 4° C. with 4% paraformaldehyde in PBS containing 62.5 µg/ml LPC palmitoyl and 1 U/ml rhodamine phalloidin (Molecular Probes) to stain the cytoskeleton. Following three washes with PBS, […] of ProLong Gold mounting medium with DAPI (Molecular Probes) was applied and the cells were overlaid with a coverslip.

[3] = system: normal fibroblasts (GM08398 and HGMDFN090); assay: Nuclear morphology of normal fibroblasts maintained in FTI; format: cell-based, human
Protocol: as §2, §3

[4] = system: normal fibroblasts (GM08398) stably expressing GFP-lamin A, GFP-progerin and GFP-LA(L647R); assay: Nuclear morphology and GFP localization in normal fibroblasts stably expressing GFP fusions (retroviral TET-OFF), exposed to FTI; format: cell-based, human
Protocol: FIG. 11 illustrates the effect of the FT1, PD169451, on the nuclear morphology of normal fibroblasts (GM08398) stably expressing GFP-lamin A, GFP-progerin and GFP-LA(L647R) using a retroviral TET-OFF® expression vector system (Clontech). Fibroblasts were maintained in medium with 0 nM, 10 nM or 100 nM FTI for 6 days.
Cultures were plated in chambered microscope slides 24 hours prior to fixing with 4% paraformaldehyde for nuclear morphology studies. Cells were maintained in three predetermined tetracycline concentrations, 0 mM for full expression (A), 0.05 mM for intermediate expression levels (B), and 8 mM for very low expression levels (C). […] Analysis of nuclear morphology was performed in a double blinded fashion with at least 70 cells analyzed per sample.
FIG. 12 illustrates the effect of FTI on the distribution of GFP signal in normal fibroblasts (GM08398) expressing GFP-lamin A (panels A, B and C), GFP-progerin (D, E and F) and GFP-LA(L647R) (G, H, and I) using a retroviral TET-OFF® expression vector system with various FTI concentrations. Fibroblasts were maintained in medium with 0 nM (A, D, G), 10 nM (B, E, and H) or 100 nM (C, F and I) FTI for six days. Expression levels of the GFP fusions were maintained at levels similar to endogenous levels of lamin A by the addition of 0.05 mg/ml tetracycline. Signals were visualized with a Zeiss AXIOPHOT™ Fluorescent microscope and imaging was performed using the Olympus DP70 Digital Camera System.
Retroviral Constructs: The pRevTetOff vector and pRevTRE constructs were transfected using FUGENE®6 transfection reagent into the Amphotropic Phoenix retroviral packaging line (Peter Nolan, Stanford University). Forty-eight hours after transfection the media containing retrovirus was filtered through a 0.22 micron filter and used immediately or stored at −70° C. Retroviral infection was performed by exposing target cells to a 1:1 mix of retroviral supernatant and growth medium with 4 μg/ml polybrene.
By way of example, GFP-lamin A and GFP-progerin were expressed from TET-OFF® retroviral expression vector constructs that allowed for sustained expression and modulation of expression to address the possibility of results due to over-expression of the fusion proteins when the proteins were transiently expressed. In addition, a cleavage minus mutant, GFP-LA(L647R), was included to examine the effect of retaining the farnesyl group without the 50 amino acid deletion found in progerin.

endogenous lamin A = assay: Lamin A processing (pre-lamin A) by immunoblot after FTI exposure; format: cell-based, human; details: 100 nM FTI, 72 hours; normal and HGPS fibroblasts
Protocol: as §1
Immunoblotting: Proteins were transferred to Immobilon-P membrane (Millipore) using a Trans-Blot semi-dry electrophoretic transfer cell (BioRad) blocked with 5% dry milk in TBST and probed with lamin A/C specific antibodies according to standard protocols.

[5] = cited from earlier work
[6] = 10 nM FTI, 6 days, intermediate expression (0.05 mg/ml tetracycline), p<0.0001

## CC(C)(CNC(=O)CN(Cc1ccc(OCc2ccccc2)cc1)C(=O)[C@H](Cc1cnc[nH]1)NC(=O)OCc1ccccc1)c1ccccc1 [PD169451]
[1]
  effect on the localization of transiently expressed GFP-lamin A and GFP-progerin: significant effect
  percent of mock transfected cells and GFP-lamin A expressing cells with abnormal nuclear morphology: increased
[1]; normal fibroblasts transiently expressing GFP-progerin
  decrease in the percentage of cells expressing GFP-progerin with an abnormal nuclear morphology: 33%
[2]; 10 nM FTI
  percentage of abnormal nuclei in HGPS fibroblasts and in normal fibroblasts expressing GFP-progerin: significantly lowered
[2]; 10 nM FTI, 14 days, HGPS cell line HGADFN004
  drop in abnormal morphology: 12%
[2]; 10 nM FTI, 14 days, three HGPS lines each
  decrease in abnormal nuclei: ≥ 70%
[2]; 10 nM FTI, two days, four HGPS cell lines
  reduction in the percent of cells with abnormal nuclei: ~40%
[2]; 100 nM FTI, 14 day time point
  growth of HGADFN004 line: failed to grow
[2]; AG11498 line, various FTI concentrations, three days
  drop in the percent of cells with abnormal nuclear morphology: ≤ 40%
[2]; long-term exposure, normal and HGPS fibroblasts
  FTI dose that caused cells to stop dividing after a week to 10 days: greater than 200 nM
[2]; normal fibroblasts expressing progerin and HGPS fibroblasts (summary of Example 3)
  nuclear morphology phenotype: significant improvement
[3]; 0, 10, 100 nM FTI
  abnormal nuclear morphology in normal fibroblasts, dose dependence: dose dependent manner
[3]; 10 nM FTI
  nuclear morphology of normal cells: did not substantially alter
[3]; high doses of the FTI, greater than 200 nM
  abnormal nuclear morphology in normal fibroblasts: increase in abnormal nuclear morphology
[4]; [6]
  reduction of percent abnormal nuclei, GFP-LA(L647R): 67%
  reduction of percent abnormal nuclei, GFP-progerin: 71%
[4]; 10 nM FTI, stable expression
  reorganization of GFP signal for any of the fusion proteins: did not lead to this drastic reorganization
[4]; 10 nM FTI, no tetracycline
  effect on abnormal nuclear morphology at very high expression levels of GFP-progerin or GFP-LA(L647R): could not overcome
[4]; 100 nM FTI, stable expression
  localization of GFP-lamin A and GFP-progerin: localize to intranuclear filaments
  localization of GFP-tagged L647R mutant: redistributed to intranuclear filaments
[4]; 100 nM FTI, intermediate expression of GFP-progerin and GFP-LA(L647R)
  improvement in abnormal nuclear morphology at 100 nM in comparison to 10 nM: less profound
Endogenous lamin A
  endogenous lamin A present as unprocessed pre-lamin A: about half

## Cn1cncc1[C@@](N)(c1ccc(Cl)cc1)c1ccc2c(c1)c(-c1cccc(Cl)c1)cc(=O)n2C [tipifarnib]
[5]; Phase III trials, including trials involving children
  tolerability: well tolerated
[5]; clinical trials
  tolerability: well tolerated
